Measured values: patent US20260166159A1, “KRAS G12D DEGRADATION AGENT, AND PREPARATION METHOD AND USE THEREFOR” (LEADINGTAC PHARMACEUTICAL (SHAOXING) CO., LTD., priority 2022, published 2026)

How the values were obtained:
Assay type in all cases: cell-based
[1] = tested on: KRAS G12D mutant human pancreatic cancer cell Panc 04.03; assay: 3D cell proliferation inhibition assay, Panc 04.03; details: 168 h, Panc 04.03, 7 days, CTG, numeric values
Excerpt: (§1) The inhibitory effects of the compounds on 3D cell proliferation were investigated on KRAS G12D mutant human lung cancer cell A427, KRAS G12D mutant human gastric cancer cell AGS, KRAS G12D mutant human metastatic pancreatic cancer cell AsPc-1, KRAS G12D mutant human pancreatic cancer cell Panc 04.03, KRAS G12D mutant human pancreatic cancer cell HPAC, KRAS G12V mutant human lung squamous cell carcinoma cell SW900, and KRAS WT human gastric cancer cell MKN1. The specific procedures were as follows:
(§2) 10 μL of each compound solution diluted in a gradient was added to corresponding wells of a 96-well low-adsorption microplate (PerkinElmer), so that the final concentrations of the test compounds in the reaction system were in a range of 10000-0.026 nM. The final concentration of DMSO was 0.2%. Then 90 µL of cells were correspondingly seeded into each well to achieve a cell density of 5×10^2 cells/well (the cell density of SW900 was 5×10^1 cells/well, and the cell density of MKN1 was 1×10^3 cells/well). In addition to test wells for the test compounds, both a DMSO control well and a medium control well were set, with the DMSO control well containing DMSO and cells and the medium well containing only a medium. After the sample loading, the 96-well low-adsorption microplate was incubated in an incubator at 37° C. with 5% carbon dioxide for 7 days. After 7 days, the microplate was taken out, and 100 μL of CTG reagent (Promega) was added to each well. The plate was incubated at room temperature for 60 min and read on a microplate reader EnVision by the chemiluminescence program. The inhibition rates of the compounds at each concentration were calculated using the formula for the percentage inhibition of cell proliferation: inhibition rate %=(mean value of DMSO control group−single concentration reading value of compound)/(mean value of DMSO control group−mean value of medium control group)×100. Then non-linear curve fittings for logarithmic concentration-inhibition rate were performed by GraphPad Prism 8, and the IC50 values of the compounds were obtained (Table 5).

[2] = tested on: KRAS G12D mutant human gastric cancer cell AGS; assay: 3D cell proliferation inhibition assay, AGS; details: 168 h, 7 days, CTG, numeric values
How it was run: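 IC50 values derive from nonlinear fits of log dose against percent inhibition of 7-day 3D proliferation. Readout: CTG luminescence. Plating density: 5×10^2 cells/well in low-adsorption plates. Dosing: 10000–0.026 nM final, 0.2% DMSO.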

KRAS-G12D = molecular target: T1, KRAS-G12D (Homo sapiens, UniProt P01116, G12D); assay: KRAS-G12D degradation assay (Western Blot), AsPc-1 cells; details: for DC50: 24 h; for Dmax: ASPC1, 24 h
T1 construct: endogenous in cells; host or cells: A-427 (ATCC), AGS, AsPc-1, Panc 04.03
T1 sequence (P01116 1-188 isoform P01116-2 G12D): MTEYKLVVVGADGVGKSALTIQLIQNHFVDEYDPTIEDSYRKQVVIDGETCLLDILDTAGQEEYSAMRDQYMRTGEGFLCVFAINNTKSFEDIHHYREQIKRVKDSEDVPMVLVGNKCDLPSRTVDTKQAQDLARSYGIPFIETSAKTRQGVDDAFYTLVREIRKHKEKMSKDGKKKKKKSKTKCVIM
Experimental: The degradation effects of the compounds on KRAS-G12D were investigated on KRAS G12D mutant human lung cancer cell A-427 (ATCC), KRAS G12D mutant human gastric cancer cell AGS, KRAS G12D mutant human metastatic pancreatic cancer cell AsPc-1, and KRAS G12D mutant human pancreatic adenocarcinoma cell Panc 04.03. The specific procedures were as follows: 0.95 mL of cells were seeded into each well of a 24-well cell culture plate to achieve a cell density of 5×10^5 cells/well; and the cell plate was incubated in an incubator at 37° C. with 5% CO2 overnight. Then 50 μL of the compound solution after dilution was added to each of the wells with the corresponding cells, so that the final concentration of the compound was in a range of 0.03-3000 nM. The final concentration of DMSO was 0.25%. After the compounds were added, the cell plate was incubated in the incubator at 37° C. with 5% CO2 for 24 h. The culture medium in the 24-well cell culture plate was removed, and the plate was washed twice with 1×PBS (KeyGEN). 120 μL of RIPA (strong) lysis buffer (Beyotime) supplemented with 1 mM phenylmethylsulfonyl fluoride, a protease inhibitor mixture (Beyotime), and a protease phosphatase inhibitor mixture (Beyotime) was added to lyse adherent A-427 cells at the bottom of the cell culture plate. After the plate was left to stand on ice for 30 min, the protein lysate in each well was transferred to a 1.5 mL centrifuge tube and centrifuged at 15000 g for 20 min at 4° C. The cell lysate supernatants after centrifugation were cryopreserved in a refrigerator at −80° C. for later use.
After the samples of the cell lysate supernatants that had been prepared were thawed from the refrigerator at −80° C., the total protein concentrations of the cell lysates were determined using a BCA protein quantification kit (Tiangen). The total protein concentrations of the samples were then adjusted to 0.5 μg/μL with PBS and 5×SDS-PAGE protein loading buffer (Beyotime), and the samples were incubated in a water bath at 100° C. for 15 min. The samples were then incubated in an ice bath for 5 min and centrifuged at 14000 g for 1 min at 4° C., and the supernatants were mixed well as loading samples for the Western Blot assay. The samples were loaded into wells of a 10% precast gel (KeyGEN) with a loading volume of 10 μL (total protein: 5 μg), a sufficient Tris-MOPS-SDS running buffer (Adamas) was added, and then electrophoresis was performed at a constant voltage of 120 V for 55 min. After the electrophoresis, the proteins on the gel were transferred to PVDF membranes at a constant current of 250 mA for 55 min. After the membrane transfer, the PVDF membranes were incubated in 1× Quick Block blocking buffer (Beyotime) at room temperature for 30 min. After the blocking, the PVDF membranes were separately incubated at 4° C. overnight with the KRAS antibody (Abcam) diluted in a ratio of 1:1000 and the […] antibody (Abcam) diluted in a ratio of 1:2000 in 5% BSA as the diluent, and then washed with 1×TBST buffer (2.4 g of Tris, 8.8 g of NaCl, 1.5 mL of Tween 20, with pH adjusted to 7.4, with the volume brought to 1 L) 3 times for 10 min/time. The membranes were incubated with a secondary antibody (Abcam) diluted in 5% BSA at room temperature for 2 h, and then washed with 1×TBST buffer 3 times for 10 min/time. Finally, the membranes were incubated with Clarity Western ECL Substrate (BIO-RAD) for 5 min for luminescence and color development, and a ChemiScope 6200 Touch chemiluminescence imaging system (Clinx) was used for color development and protein mapping. Gray value analysis of the protein maps was performed using the chemiluminescence analysis software (Clinx). The gray correction value for each sample was calculated using the formula: gray correction value=(gray value of target protein/gray value of corresponding internal reference)×10^3. Then degradation rates were calculated by comparison with the gray correction value of the control group. […]

[3] = tested on: KRAS G12D mutant human metastatic pancreatic cancer cell AsPc-1; assay: 3D cell proliferation inhibition assay, AsPc-1; details: ASPC1, 168 h, AsPc-1, 7 days, CTG, numeric values
Excerpt: as §1, §2

[4] = tested on: KRAS G12D mutant human pancreatic cancer cell HPAC; assay: 3D cell proliferation inhibition assay, HPAC; details: 168 h, 7 days, CTG
Excerpt: as §1, §2

SMILES	IC50 [1] [nM]	IC50 [2] [nM]	DC50 (KRAS-G12D) [nM]	Dmax (KRAS-G12D) [%]	IC50 [3] [nM]	IC50 [4] [nM]
C#Cc1c(F)ccc2cc(O)cc(-c3ncc4c(N5CC6CCC(C5)N6)nc(OC[C@H](C)CN5CCN(CC6CCC7(CC6)CCN(C(=O)c6ccc(CC)c(N8CCC(=O)NC8=O)c6)CC7)CC5)nc4c3F)c12 [Example 110, 1-(5-(9-((4-((R)-3-((4-(3,8-diazabicyclo[3.2.1]octan-3-yl)-7-(8-ethynyl-7-fluoro-3-hydroxynaphthalen-1-yl)-8-fluoropyrido[4,3-d]pyrimidin-2-yl)oxy)-2-methylpropyl)piperazin-1-yl)methyl)-3-azaspiro[5.5]undecane-3-carbonyl)-2-ethylphenyl)dihydropyrimidine-2,4(1H,3H)-dione]	12.5	5.69	2.56	99.2	4.47	18.6
[2H]C([2H])([2H])Oc1ccc(C(=O)N2CCC3(CCC(CN4CCN(C[C@@H](C)COc5nc(N6CC7CCC(C6)N7)c6cnc(-c7cc(O)cc8ccc(F)c(C#C)c78)c(F)c6n5)CC4)CC3)CC2)cc1N1CCC(=O)NC1=O [Example 253, 1-(5-(9-((4-((R)-3-((4-(3,8-diazabicyclo[3.2.1]octan-3-yl)-7-(8-ethynyl-7-fluoro-3-hydroxynaphthalen-1-yl)-8-fluoropyrido[4,3-d]pyrimidin-2-yl)oxy)-2-methylpropyl)piperazin-1-yl)methyl)-3-azaspiro[5.5]undecane-3-carbonyl)-2-(methoxy-d3)phenyl)dihydropyrimidine-2,4(1H,3H)-dione]	18.8	3.92	1.39	100	1.59	10.6
C#Cc1c(F)ccc2cc(O)cc(-c3ncc4c(N5CC6CCC(C5)N6)nc(OCC5(CN6CCN(CC7CCC8(CCN(C(=O)c9ccc(C)c(N%10CCC(=O)NC%10=O)c9)CC8)OC7)CC6)CC5)nc4c3F)c12 (stereo not shown) [Example 151, 1-(5-(3-((4-((1-(((4-(3,8-diazabicyclo[3.2.1]octan-3-yl)-7-(8-ethynyl-7-fluoro-3-hydroxynaphthalen-1-yl)-8-fluoropyrido[4,3-d]pyrimidin-2-yl)oxy)methyl)cyclopropyl)methyl)piperazin-1-yl)methyl)-1-oxa-9-azaspiro[5.5]undecane-9-carbonyl)-2-methylphenyl)dihydropyrimidine-2,4(1H,3H)-dione]	23.1	6.82			3.86	6.92
C#Cc1c(F)ccc2cc(O)cc(-c3ncc4c(N5CC6CCC(C5)N6)nc(OCC5(CN6CCN(CC7CCC8(CC7)CCN(C(=O)c7cc(N9CCC(=O)NC9=O)c(C)cc7F)CC8)CC6)CC5)nc4c3F)c12 [Example 104, 1-(5-(9-((4-((1-(((4-(3,8-diazabicyclo[3.2.1]octan-3-yl)-7-(8-ethynyl-7-fluoro-3-hydroxynaphthalen-1-yl)-8-fluoropyrido[4,3-d]pyrimidin-2-yl)oxy)methyl)cyclopropyl)methyl)piperazin-1-yl)methyl)-3-azaspiro[5.5]undecane-3-carbonyl)-4-fluoro-2-methylphenyl)dihydropyrimidine-2,4(1H,3H)-dione]	31.3	2.49			1.83	5.32
C#Cc1c(F)ccc2cc(O)cc(-c3ccc4c(N5CC6CCC(C5)N6)nc(OC[C@H](C)CN5CCN(CC6CCC7(CC6)CCN(C(=O)c6ccc(OC)c(N8CCC(=O)NC8=O)c6)CC7)CC5)nc4c3F)c12 [Example 207, 1-(5-(9-((4-((R)-3-((4-(3,8-diazabicyclo[3.2.1]octan-3-yl)-7-(8-ethynyl-7-fluoro-3-hydroxynaphthalen-1-yl)-8-fluoroquinazolin-2-yl)oxy)-2-methylpropyl)piperazin-1-yl)methyl)-3-azaspiro[5.5]undecane-3-carbonyl)-2-methoxyphenyl)dihydropyrimidine-2,4(1H,3H)-dione]	34.5	11.2	15.1	99.7	16.1	
[2H]C([2H])([2H])c1ccc(C(=O)N2CCC3(CCC(CN4CCN(CC5(COc6nc(N7CC8CCC(C7)N8)c7cnc(-c8cc(O)cc9ccc(F)c(C#C)c89)c(F)c7n6)CC5)CC4)CC3)CC2)cc1N1CCC(=O)NC1=O [Example 103, 1-(5-(9-((4-((1-(((4-(3,8-diazabicyclo[3.2.1]octan-3-yl)-7-(8-ethynyl-7-fluoro-3-hydroxynaphthalen-1-yl)-8-fluoropyrido[4,3-d]pyrimidin-2-yl)oxy)methyl)cyclopropyl)methyl)piperazin-1-yl)methyl)-3-azaspiro[5.5]undecane-3-carbonyl)-2-(methyl-d3)phenyl)dihydropyrimidine-2,4(1H,3H)-dione]	16.8	4.35			1.41	1.58
C#Cc1c(F)ccc2cc(O)cc(-c3ccc4c(N5CC6CCC(C5)N6)nc(OC[C@H](C)CN5CCN(CC6CCC7(CC6)CCN(C(=O)c6ccc(C)c(N8CCC(=O)NC8=O)c6)CC7)CC5)nc4c3F)c12 [Example 251, 1-(5-(9-((4-((R)-3-((4-(3,8-diazabicyclo[3.2.1]octan-3-yl)-7-(8-ethynyl-7-fluoro-3-hydroxynaphthalen-1-yl)-8-fluoroquinazolin-2-yl)oxy)-2-methylpropyl)piperazin-1-yl)methyl)-3-azaspiro[5.5]undecane-3-carbonyl)-2-methylphenyl)dihydropyrimidine-2,4(1H,3H)-dione]	22.4		8.72	99.1	14.3	40.2
